Source: paper PMC6891286, “Towards the Development of an In vivo Chemical Probe for Cyclin G Associated Kinase (GAK)” (Molecules, 2019)

Key:
Test in all cases: KINOMEscan
Format in all cases: binding
Details in all cases: 35 at 1 µM; read-out: % inhibition
[1] = biological target: T1, AURKA (Homo sapiens, UniProt O14965)
T1 construct: purchased Eurofins DiscoverX (KINOMEscan)
Procedure: (§1) KinomeScan Assay on 35 was performed as previously described at EuroFins DiscoverX (Fremont, CA, USA).

[2] = biological target: T2, FLT3(N841I) (Homo sapiens, UniProt P36888, N841I)
T2 construct: purchased Eurofins DiscoverX (KINOMEscan)
Procedure: as §1

[3] = biological target: T3, FRK (Homo sapiens, UniProt P42685)
T3 construct: purchased Eurofins DiscoverX (KINOMEscan)
Procedure: as §1

[4] = biological target: T4, ERBB3 (Homo sapiens, UniProt P21860)
T4 construct: purchased Eurofins DiscoverX (KINOMEscan)
Procedure: as §1

[5] = biological target: T5, BMPR1B (Homo sapiens, UniProt O00238)
T5 construct: purchased Eurofins DiscoverX (KINOMEscan)
T5 sequence (O00238 14-502): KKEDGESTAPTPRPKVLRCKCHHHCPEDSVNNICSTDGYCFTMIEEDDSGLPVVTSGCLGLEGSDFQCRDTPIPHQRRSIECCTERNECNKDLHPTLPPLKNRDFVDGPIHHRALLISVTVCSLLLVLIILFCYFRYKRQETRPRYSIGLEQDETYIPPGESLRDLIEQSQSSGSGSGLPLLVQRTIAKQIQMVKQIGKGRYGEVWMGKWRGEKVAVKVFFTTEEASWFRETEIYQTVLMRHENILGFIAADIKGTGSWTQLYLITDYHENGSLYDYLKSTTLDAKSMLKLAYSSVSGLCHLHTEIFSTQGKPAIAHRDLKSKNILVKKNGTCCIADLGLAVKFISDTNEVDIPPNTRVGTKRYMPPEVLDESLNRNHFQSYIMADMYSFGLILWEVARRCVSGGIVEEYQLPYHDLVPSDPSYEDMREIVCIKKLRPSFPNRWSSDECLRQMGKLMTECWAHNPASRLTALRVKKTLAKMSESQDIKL
Procedure: as §1

[6] = biological target: T6, MRCKA (Homo sapiens, UniProt Q5VT25)
T6 construct: purchased Eurofins DiscoverX (KINOMEscan)
T6 sequence (Q5VT25 whole entry): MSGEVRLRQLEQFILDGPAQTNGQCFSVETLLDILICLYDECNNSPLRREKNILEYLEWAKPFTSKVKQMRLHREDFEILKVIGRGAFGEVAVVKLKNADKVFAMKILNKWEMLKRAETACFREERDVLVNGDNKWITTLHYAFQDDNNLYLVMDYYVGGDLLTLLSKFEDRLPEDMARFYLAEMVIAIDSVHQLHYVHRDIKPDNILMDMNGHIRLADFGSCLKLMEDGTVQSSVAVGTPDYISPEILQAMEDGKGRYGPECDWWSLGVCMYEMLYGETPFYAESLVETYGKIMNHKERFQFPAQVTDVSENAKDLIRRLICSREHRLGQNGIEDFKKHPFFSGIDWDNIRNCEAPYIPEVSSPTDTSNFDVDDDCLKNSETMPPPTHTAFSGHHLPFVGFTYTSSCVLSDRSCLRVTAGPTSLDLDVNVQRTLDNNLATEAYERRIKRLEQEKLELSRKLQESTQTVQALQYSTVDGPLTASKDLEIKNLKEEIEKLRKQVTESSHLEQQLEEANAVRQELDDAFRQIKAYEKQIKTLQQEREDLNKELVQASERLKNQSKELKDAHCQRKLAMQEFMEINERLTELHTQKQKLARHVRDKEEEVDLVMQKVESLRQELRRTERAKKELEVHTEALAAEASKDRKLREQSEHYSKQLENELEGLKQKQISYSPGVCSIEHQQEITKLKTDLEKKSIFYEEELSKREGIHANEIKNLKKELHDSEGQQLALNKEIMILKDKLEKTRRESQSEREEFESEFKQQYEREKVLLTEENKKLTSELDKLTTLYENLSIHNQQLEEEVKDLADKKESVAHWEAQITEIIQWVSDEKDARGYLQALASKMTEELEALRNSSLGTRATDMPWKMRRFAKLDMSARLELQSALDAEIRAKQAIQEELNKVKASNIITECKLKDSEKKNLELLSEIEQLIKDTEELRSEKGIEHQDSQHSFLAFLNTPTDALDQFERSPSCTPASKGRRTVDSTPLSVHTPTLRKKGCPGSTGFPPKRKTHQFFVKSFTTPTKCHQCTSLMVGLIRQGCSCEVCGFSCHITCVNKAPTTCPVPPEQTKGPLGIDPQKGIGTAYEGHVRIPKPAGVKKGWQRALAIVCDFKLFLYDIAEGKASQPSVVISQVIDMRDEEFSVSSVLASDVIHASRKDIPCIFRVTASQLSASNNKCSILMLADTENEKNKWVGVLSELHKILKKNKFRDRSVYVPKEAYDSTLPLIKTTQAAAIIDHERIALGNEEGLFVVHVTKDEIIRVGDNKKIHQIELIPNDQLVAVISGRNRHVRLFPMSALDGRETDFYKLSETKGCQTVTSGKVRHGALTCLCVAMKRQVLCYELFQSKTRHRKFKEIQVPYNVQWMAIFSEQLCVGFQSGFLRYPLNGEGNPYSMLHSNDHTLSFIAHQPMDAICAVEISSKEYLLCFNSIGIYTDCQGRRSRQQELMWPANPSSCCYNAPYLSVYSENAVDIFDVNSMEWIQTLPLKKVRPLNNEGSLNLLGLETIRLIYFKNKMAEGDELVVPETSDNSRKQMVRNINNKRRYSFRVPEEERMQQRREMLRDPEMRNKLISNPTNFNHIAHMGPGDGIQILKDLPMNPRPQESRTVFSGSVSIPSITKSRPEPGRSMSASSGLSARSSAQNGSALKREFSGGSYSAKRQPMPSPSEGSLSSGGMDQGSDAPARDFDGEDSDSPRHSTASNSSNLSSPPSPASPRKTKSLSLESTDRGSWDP
Procedure: as §1

[7] = biological target: T7, DCAMKL3 (Homo sapiens, UniProt Q9C098)
T7 construct: purchased Eurofins DiscoverX (KINOMEscan)
T7 sequence (Q9C098 whole entry): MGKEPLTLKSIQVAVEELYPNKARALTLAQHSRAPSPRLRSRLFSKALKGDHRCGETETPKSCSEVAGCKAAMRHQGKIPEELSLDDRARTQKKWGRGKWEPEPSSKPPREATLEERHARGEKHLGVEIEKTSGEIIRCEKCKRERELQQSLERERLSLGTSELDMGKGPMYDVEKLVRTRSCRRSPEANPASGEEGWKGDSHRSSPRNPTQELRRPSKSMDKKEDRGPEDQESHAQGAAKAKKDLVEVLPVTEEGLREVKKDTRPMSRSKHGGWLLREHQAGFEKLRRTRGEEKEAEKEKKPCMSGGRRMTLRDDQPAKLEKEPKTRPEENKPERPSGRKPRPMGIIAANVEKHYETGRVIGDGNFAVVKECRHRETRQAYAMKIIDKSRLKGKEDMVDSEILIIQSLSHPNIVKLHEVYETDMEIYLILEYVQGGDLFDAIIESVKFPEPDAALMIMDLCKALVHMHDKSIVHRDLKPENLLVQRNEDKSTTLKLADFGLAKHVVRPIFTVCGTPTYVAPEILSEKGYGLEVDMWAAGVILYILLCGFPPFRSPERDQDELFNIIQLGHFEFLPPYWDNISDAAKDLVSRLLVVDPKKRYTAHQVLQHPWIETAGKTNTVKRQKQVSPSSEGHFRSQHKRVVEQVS
Procedure: as §1

[8] = biological target: T8, PAK1 (Homo sapiens, UniProt Q13153)
T8 construct: purchased Eurofins DiscoverX (KINOMEscan)
Procedure: as §1

[9] = biological target: T9, BMX (Homo sapiens, UniProt P51813)
T9 construct: purchased Eurofins DiscoverX (KINOMEscan)
Procedure: as §1

[10] = biological target: T10, JAK3(JH1domain-catalytic) (Homo sapiens, UniProt P52333)
T10 construct: JAK3(JH1domain-catalytic); purchased Eurofins DiscoverX (KINOMEscan)
T10 sequence (P52333 814-1124 limits assumed): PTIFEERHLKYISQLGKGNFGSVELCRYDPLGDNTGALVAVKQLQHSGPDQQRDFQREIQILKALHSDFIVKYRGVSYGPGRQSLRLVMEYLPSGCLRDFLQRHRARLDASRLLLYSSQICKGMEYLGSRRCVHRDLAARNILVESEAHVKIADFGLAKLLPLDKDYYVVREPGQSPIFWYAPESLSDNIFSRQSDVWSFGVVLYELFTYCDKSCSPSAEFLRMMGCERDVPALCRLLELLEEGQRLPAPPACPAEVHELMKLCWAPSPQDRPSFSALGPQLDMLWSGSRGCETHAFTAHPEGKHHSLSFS
Procedure: as §1

[11] = biological target: T11, OSR1 (Homo sapiens, UniProt O95747)
T11 construct: purchased Eurofins DiscoverX (KINOMEscan)
T11 sequence (O95747 whole entry): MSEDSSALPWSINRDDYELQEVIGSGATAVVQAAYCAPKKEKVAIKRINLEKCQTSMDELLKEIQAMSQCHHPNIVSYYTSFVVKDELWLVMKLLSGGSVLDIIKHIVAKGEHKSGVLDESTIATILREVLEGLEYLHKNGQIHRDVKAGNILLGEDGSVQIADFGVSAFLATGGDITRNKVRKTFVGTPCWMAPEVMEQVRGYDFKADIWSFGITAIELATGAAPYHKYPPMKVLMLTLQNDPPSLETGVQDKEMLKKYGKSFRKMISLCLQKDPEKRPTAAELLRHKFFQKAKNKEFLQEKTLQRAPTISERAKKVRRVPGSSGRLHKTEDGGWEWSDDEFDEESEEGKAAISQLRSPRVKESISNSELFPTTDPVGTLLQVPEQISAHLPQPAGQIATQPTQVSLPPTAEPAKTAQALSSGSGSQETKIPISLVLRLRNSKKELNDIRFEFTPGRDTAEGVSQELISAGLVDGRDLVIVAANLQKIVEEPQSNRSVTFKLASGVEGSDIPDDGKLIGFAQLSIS
Procedure: as §1

[12] = biological target: T12, ALK (Homo sapiens, UniProt Q9UM73)
T12 construct: purchased Eurofins DiscoverX (KINOMEscan)
Procedure: as §1

[13] = biological target: T13, FGR (Homo sapiens, UniProt P09769)
T13 construct: purchased Eurofins DiscoverX (KINOMEscan)
Procedure: as §1

[14] = biological target: T14, RPS6KA5(Kin.Dom.2-C-terminal) (Homo sapiens, UniProt O75582)
T14 construct: RPS6KA5(Kin.Dom.2-C-terminal); purchased Eurofins DiscoverX (KINOMEscan)
Procedure: as §1

[15] = biological target: T15, VPS34 (Homo sapiens, UniProt Q8NEB9)
T15 construct: purchased Eurofins DiscoverX (KINOMEscan)
Procedure: as §1

[16] = biological target: T16, PKN2 (Homo sapiens, UniProt Q16513)
T16 construct: purchased Eurofins DiscoverX (KINOMEscan)
Procedure: as §1

[17] = biological target: T17, p38-gamma (Homo sapiens, UniProt P53778)
T17 construct: purchased Eurofins DiscoverX (KINOMEscan)
T17 sequence (P53778 whole entry): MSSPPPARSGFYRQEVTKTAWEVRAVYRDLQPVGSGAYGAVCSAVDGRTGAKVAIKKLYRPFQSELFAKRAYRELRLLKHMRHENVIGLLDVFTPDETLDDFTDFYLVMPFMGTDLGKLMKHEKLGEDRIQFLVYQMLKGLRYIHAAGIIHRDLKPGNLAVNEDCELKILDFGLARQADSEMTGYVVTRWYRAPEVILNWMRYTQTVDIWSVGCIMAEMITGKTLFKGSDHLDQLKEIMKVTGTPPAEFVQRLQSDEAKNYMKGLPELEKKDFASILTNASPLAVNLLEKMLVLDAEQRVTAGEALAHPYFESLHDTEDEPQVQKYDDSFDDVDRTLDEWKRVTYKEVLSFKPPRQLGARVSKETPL
Procedure: as §1

[18] = biological target: T18, INSR (Homo sapiens, UniProt P06213)
T18 construct: purchased Eurofins DiscoverX (KINOMEscan)
Procedure: as §1

[19] = biological target: T19, TIE1 (Homo sapiens, UniProt P35590)
T19 construct: purchased Eurofins DiscoverX (KINOMEscan)
Procedure: as §1

[20] = biological target: T20, FER (Homo sapiens, UniProt P16591)
T20 construct: purchased Eurofins DiscoverX (KINOMEscan)
Procedure: as §1

[21] = biological target: T21, ICK (Homo sapiens, UniProt Q9UPZ9)
T21 construct: purchased Eurofins DiscoverX (KINOMEscan)
Procedure: as §1

[22] = biological target: T22, CSK (Homo sapiens, UniProt P41240)
T22 construct: purchased Eurofins DiscoverX (KINOMEscan)
Procedure: as §1

[23] = biological target: T23, MYO3A (Homo sapiens, UniProt Q8NEV4)
T23 construct: purchased Eurofins DiscoverX (KINOMEscan)
Procedure: as §1

[24] = biological target: T24, EPHA5 (Homo sapiens, UniProt P54756)
T24 construct: purchased Eurofins DiscoverX (KINOMEscan)
Procedure: as §1

[25] = biological target: T25, ABL1(M351T)-phosphorylated (Homo sapiens, UniProt P00519, M351T)
T25 construct: purchased Eurofins DiscoverX (KINOMEscan)
Procedure: as §1

[26] = biological target: T26, ABL1(F317L)-nonphosphorylated (Homo sapiens, UniProt P00519, F317L)
T26 construct: purchased Eurofins DiscoverX (KINOMEscan)
Procedure: as §1

[27] = biological target: T27, CAMKK2 (Homo sapiens, UniProt Q96RR4)
T27 construct: purchased Eurofins DiscoverX (KINOMEscan)
Procedure: as §1

[28] = biological target: T28, FLT3 (Homo sapiens, UniProt P36888)
T28 construct: purchased Eurofins DiscoverX (KINOMEscan)
Procedure: as §1

[29] = biological target: T29, VRK2 (Homo sapiens, UniProt Q86Y07)
T29 construct: purchased Eurofins DiscoverX (KINOMEscan)
Procedure: as §1

[30] = biological target: T30, AMPK-alpha1 (Homo sapiens, UniProt Q13131)
T30 construct: purchased Eurofins DiscoverX (KINOMEscan)
Procedure: as §1

[31] = biological target: T31, PKMYT1 (Homo sapiens, UniProt Q99640)
T31 construct: purchased Eurofins DiscoverX (KINOMEscan)
Procedure: as §1

[32] = biological target: T32, p38-alpha (Homo sapiens, UniProt Q16539)
T32 construct: purchased Eurofins DiscoverX (KINOMEscan)
Procedure: as §1

[33] = biological target: T33, LIMK1 (Homo sapiens, UniProt P53667)
T33 construct: purchased Eurofins DiscoverX (KINOMEscan)
Procedure: as §1

[34] = biological target: T34, JAK1(JH2domain-pseudokinase) (Homo sapiens, UniProt P23458)
T34 construct: JAK1(JH2domain-pseudokinase); purchased Eurofins DiscoverX (KINOMEscan)
Procedure: as §1

[35] = biological target: T35, S6K1 (Homo sapiens, UniProt P23443)
T35 construct: purchased Eurofins DiscoverX (KINOMEscan)
Procedure: as §1

[36] = biological target: T36, BRSK1 (Homo sapiens, UniProt Q8TDC3)
T36 construct: purchased Eurofins DiscoverX (KINOMEscan)
Procedure: as §1

[37] = biological target: T37, AURKC (Homo sapiens, UniProt Q9UQB9)
T37 construct: purchased Eurofins DiscoverX (KINOMEscan)
T37 sequence (Q9UQB9 whole entry): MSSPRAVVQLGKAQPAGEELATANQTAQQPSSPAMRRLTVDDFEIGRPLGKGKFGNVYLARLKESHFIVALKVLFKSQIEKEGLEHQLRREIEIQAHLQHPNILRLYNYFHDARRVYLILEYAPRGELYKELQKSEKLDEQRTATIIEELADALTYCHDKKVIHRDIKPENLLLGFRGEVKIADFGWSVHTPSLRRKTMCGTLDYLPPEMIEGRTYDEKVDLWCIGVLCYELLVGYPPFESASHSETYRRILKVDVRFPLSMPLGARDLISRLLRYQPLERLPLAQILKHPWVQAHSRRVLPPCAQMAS
Procedure: as §1

[38] = biological target: T38, SRMS (Homo sapiens, UniProt Q9H3Y6)
T38 construct: purchased Eurofins DiscoverX (KINOMEscan)
Procedure: as §1

[39] = biological target: T39, MAP3K4 (Homo sapiens, UniProt Q9Y6R4)
T39 construct: purchased Eurofins DiscoverX (KINOMEscan)
Procedure: as §1

[40] = biological target: T40, PLK3 (Homo sapiens, UniProt Q9H4B4)
T40 construct: purchased Eurofins DiscoverX (KINOMEscan)
T40 sequence (Q9H4B4 whole entry): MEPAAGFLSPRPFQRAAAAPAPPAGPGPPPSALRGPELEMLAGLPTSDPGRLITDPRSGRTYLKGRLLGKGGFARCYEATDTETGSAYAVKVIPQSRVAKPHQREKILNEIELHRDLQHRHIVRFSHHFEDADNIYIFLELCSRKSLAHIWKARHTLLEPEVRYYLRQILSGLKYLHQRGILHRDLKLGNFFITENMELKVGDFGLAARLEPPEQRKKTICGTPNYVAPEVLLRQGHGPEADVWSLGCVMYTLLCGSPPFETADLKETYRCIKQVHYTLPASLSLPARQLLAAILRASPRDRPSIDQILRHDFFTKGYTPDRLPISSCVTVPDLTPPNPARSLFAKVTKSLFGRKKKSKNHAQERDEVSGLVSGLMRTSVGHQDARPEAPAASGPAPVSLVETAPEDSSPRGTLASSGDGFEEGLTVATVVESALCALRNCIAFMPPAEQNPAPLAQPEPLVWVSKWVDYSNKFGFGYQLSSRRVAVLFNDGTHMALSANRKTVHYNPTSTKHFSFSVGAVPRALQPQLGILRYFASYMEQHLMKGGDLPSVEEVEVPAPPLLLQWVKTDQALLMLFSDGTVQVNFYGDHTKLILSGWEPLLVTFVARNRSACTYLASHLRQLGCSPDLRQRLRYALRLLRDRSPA
Procedure: as §1

[41] = biological target: T41, CSNK1G1 (Homo sapiens, UniProt Q9HCP0)
T41 construct: purchased Eurofins DiscoverX (KINOMEscan)
Procedure: as §1

[42] = biological target: T42, MARK4 (Homo sapiens, UniProt Q96L34)
T42 construct: purchased Eurofins DiscoverX (KINOMEscan)
Procedure: as §1

Brc1ccc2nccc(Nc3ccc4cn[nH]c4c3)c2c1 [Compound 35, 6-Bromo-N-(1H-indazol-6-yl)quinolin-4-amine]
activity at 1 µM [1]: 100% | activity at 1 µM [2]: 90% | activity at 1 µM [3]: 100% | activity at 1 µM [4]: 100% | activity at 1 µM [5]: 91% | activity at 1 µM [6]: 100% | activity at 1 µM [7]: 99% | activity at 1 µM [8]: 85% | activity at 1 µM [9]: 100% | activity at 1 µM [10]: 83% | activity at 1 µM [11]: 76% | activity at 1 µM [12]: 100% | activity at 1 µM [13]: 100% | activity at 1 µM [14]: 70% | activity at 1 µM [15]: 100% | activity at 1 µM [16]: 99% | activity at 1 µM [17]: 94% | activity at 1 µM [18]: 99% | activity at 1 µM [19]: 100% | activity at 1 µM [20]: 96% | activity at 1 µM [21]: 100% | activity at 1 µM [22]: 100% | activity at 1 µM [23]: 100% | activity at 1 µM [24]: 100% | activity at 1 µM [25]: 100% | activity at 1 µM [26]: 78% | activity at 1 µM [27]: 100% | activity at 1 µM [28]: 100% | activity at 1 µM [29]: 100% | activity at 1 µM [30]: 100% | activity at 1 µM [31]: 100% | activity at 1 µM [32]: 100% | activity at 1 µM [33]: 100% | activity at 1 µM [34]: 88% | activity at 1 µM [35]: 91% | activity at 1 µM [36]: 100% | activity at 1 µM [37]: 100% | activity at 1 µM [38]: 87% | activity at 1 µM [39]: 100% | activity at 1 µM [40]: 100% | activity at 1 µM [41]: 100% | activity at 1 µM [42]: 100%
